Tests used:
[1] = molecular target: T1, RARg ligand binding domain (Homo sapiens, UniProt P13631); conditions: CV-1 cell transfectants, cited from earlier work
T1 construct: expressed in transfected cells; host or cells: CV-1 cells

[2] = tested on: advanced head and neck cancer; experiment: Example 5: patients with advanced head and neck cancer; type: in vivo, human; conditions: oral 100 mg/square meter with oral IRESSA or intravenous C-225
From the text: Current systemic chemotherapy regimens are unable to prolong survival of patients with advanced head and neck cancer.

[3] = molecular target: T2, monomeric mouse RAR b (Mus musculus, UniProt P22605); conditions: read-out: IC50, ability to displace all-trans RA; cited from earlier work
T2 sequence (P22605 1-482): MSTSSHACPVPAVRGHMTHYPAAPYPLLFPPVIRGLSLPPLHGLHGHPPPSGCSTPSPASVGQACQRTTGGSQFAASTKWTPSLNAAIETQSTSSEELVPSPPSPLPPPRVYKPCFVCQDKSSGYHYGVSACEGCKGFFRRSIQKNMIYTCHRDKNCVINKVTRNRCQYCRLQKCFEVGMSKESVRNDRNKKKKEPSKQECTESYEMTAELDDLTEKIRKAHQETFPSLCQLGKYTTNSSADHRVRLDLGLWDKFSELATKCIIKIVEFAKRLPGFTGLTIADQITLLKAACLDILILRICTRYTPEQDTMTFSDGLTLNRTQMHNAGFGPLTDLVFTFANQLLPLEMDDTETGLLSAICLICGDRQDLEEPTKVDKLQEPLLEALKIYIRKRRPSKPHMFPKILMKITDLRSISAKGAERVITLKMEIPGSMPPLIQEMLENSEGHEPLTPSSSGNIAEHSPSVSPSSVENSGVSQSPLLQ

[4] = tested on: acute lymphoblastic leukemia; experiment: Example 1: patient with relapsed acute lymphoblastic leukemia; type: in vivo, human
Method: A person was diagnosed with acute lymphoblastic leukemia. […] 15 received a chemotherapy induction regimen of eight cycles of Hyper-CVAD which consists of the following: Cyclophosphamide 300 mg/mn^2 intravenously (IV) over 3 hours every 12 hours for six doses on days 1 through 3, with mesna at the same total dose as cyclophosphamide but given bycontinuous infusion starting with cyclophosphamide and ending 6 hours after the last dose; vincristine 2 mg IV days 4 and 11; doxorubicin 50 mg/^2 IV day 4; and dexamethasone 40 mg daily on days 1 through 4 and 11 through 14.
In addition, high dose methotrexate-cytarabine (ara-c) was used as follows: MTX (methotrexate) 200 mg/m^2 IV over 2 hours followed by 800 mg/m^2 IV over 24 hours on day 1; citrovorum factor rescue starting 24 hours after completion of MTX infusion at 15 mg every 6 hours x 8, and increased to 50 mg every 6 hours if MTX levels were more 25 than 20 ,upmol/L at the end of the infuision, more than 1 μμmol/L 24 hours later, or more than 0.1 μμmol/L48 hours after the end of MTX infusion, until levels were lower than 0.1μμM; ara-C (cytarabine) […] over 2 hours every 12 hours ×4 on days 2 and 3; and methylprednisolone 50 mg IV twice daily on days 1 through 3.
About a year later, they relapsed with the presence of cancer cells in blood and bone marrow. Thereafter, they underwent a salvage chemotherapy regimen of FLAG (fludarabine, ara-c and G-CSF) with the following doses: fludarabine 30 mg/m^2lday for 5 days; ara-C (cytarabine) 2 g/m^2/day for 5 days (FLAG); and G-CSF (neupogen or granulocyte colony stimulating factor) 400 micrograms/m^2/day. […] They were then given the same salvage regimen plus a daily oral dose of 4-oxo-retinol at 150 mg per day for 28 days. […] This remission lasted for one month before relapse.
The same salvage regimen was repeated with oral administration of4-oxo-retinol (75 mg per day for 18 days) in addition to a daily dose of calcitriol (50 mcg per day concomitant with the administration of 4-oxo-retinol).

[5] = tested on: ER+ or ER− tumor lines; conditions: all the ER+ or ER− tumor lines examined; cited from earlier work
[6] = tested on: retinoid receptor subtype; conditions: competition with all-trans RA; cited from earlier work
[7] = tested on: non small cell lung cancer; experiment: Example 2: patient with non small cell lung cancer; type: in vivo, human; conditions: 75 mg per day with IRESSA 250 mg per day for two months
Method: A patient suffering from non small cell lung cancer was treated with IRESSA® (250 mg per day) for two months. The disease progressed during the treatment and thae patient was continued on IRESSA® (250 mg per day) with daily dosage of 4-oxo-retinol (75 mg per day) for two months. The disease became stable and the patient continued taking IRESSA® (250 mg per day) for 4 more months without 4-oxo-retinol with a stale disease.

[8] = tested on: F9 cells; conditions: similar to all-trans RA; cited from earlier work
[9] = molecular target: T3, monomeric mouse RARa (Mus musculus, UniProt P11416); conditions: read-out: IC50, ability to displace all-trans RA; cited from earlier work
T3 sequence (P11416 1-462): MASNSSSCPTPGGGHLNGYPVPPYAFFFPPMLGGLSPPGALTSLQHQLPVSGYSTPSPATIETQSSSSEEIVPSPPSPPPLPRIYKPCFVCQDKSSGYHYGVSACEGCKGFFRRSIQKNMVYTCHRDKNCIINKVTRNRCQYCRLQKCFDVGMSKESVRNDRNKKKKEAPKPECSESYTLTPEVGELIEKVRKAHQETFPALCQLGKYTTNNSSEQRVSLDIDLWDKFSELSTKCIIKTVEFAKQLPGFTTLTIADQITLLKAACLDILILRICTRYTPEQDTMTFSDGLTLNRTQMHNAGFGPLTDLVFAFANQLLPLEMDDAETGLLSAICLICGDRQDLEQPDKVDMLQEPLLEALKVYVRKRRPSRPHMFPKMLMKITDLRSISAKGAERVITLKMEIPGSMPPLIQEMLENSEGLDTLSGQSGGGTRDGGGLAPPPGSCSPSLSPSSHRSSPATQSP

[10] = tested on: breast cancer, prostate cancer or leukemia; experiment: Example 4: patients with breast cancer, prostate cancer or leukemia; type: in vivo, human; conditions: oral 100 mg/square meter with oral IRESSA
[11] = tested on: F9 embryonal mouse teratocarcinoma cells; conditions: in F9 cells; cited from earlier work
[12] = FLAG salvage regimen plus oral 150 mg per day for 28 days

T1 sequence (P13631 185-419 limits assumed, species assumed): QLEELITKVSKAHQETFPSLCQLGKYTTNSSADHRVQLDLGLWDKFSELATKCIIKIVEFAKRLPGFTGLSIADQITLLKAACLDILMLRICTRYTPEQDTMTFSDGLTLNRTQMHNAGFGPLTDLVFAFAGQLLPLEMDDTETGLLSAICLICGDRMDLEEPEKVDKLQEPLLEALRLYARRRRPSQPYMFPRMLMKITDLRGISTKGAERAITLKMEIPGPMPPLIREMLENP
T1 sequence (P04386 1-147 partner limits assumed, species assumed): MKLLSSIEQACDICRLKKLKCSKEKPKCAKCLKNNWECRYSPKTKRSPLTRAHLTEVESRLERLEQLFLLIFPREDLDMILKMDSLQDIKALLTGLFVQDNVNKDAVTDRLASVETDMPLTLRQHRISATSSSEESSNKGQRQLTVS

CC(C=CC1=C(C)C(=O)CCC1(C)C)=CC=CC(C)=CCO [4-oxo-retinol]
activity on GAL4 chimeras by RAR ligand binding domain ([1]; chimera with ligand binding domain of RARg): highest activity
RARg activation compared with all-trans RA [1]: greater ability to induce RARg activation than all-trans RA
survival rate versus IRESSA or C-225 alone [2]: better survival rate
IC50 [3]: 420 nM
response ([4]; FLAG salvage regimen plus oral 75 mg per day for 18 days and calcitriol 50 mcg per day): complete remission
duration of remission before relapse [4, 12]: one
lymph nodes [4, 12]: shrinkage of the lumph nodes to normal size
response (blood and bone marrow) [4, 12]: complete remission
growth inhibition [5]: growth inhibitory
displacement of all-trans RA [6]: Neither compound efficiently displaced all-trans RA
disease course [7]: stable
differentiation of F9 cells [8]: induces differentiation
IC50 [9]: 330 nM
tumor burden versus IRESSA alone [10]: reduced tumor burden
half-life [11]: > 15 h
